“And” between values parts separate entries of the source, which are not always exact repeats. Identical values can stand only once. Inconclusive results and toxic doses are left out. Rule for the calls: active = survival T/C of 150% or more; inactive = T/C below 125% in these data.
Tested on: BDF1 mice, P388 leukemia ip, median survival T/C
Assay: NCI In Vivo Anticancer Drug Screen. Data for tumor model P388 Leukemia (intraperitoneal) in B6D2F1 (BDF1) mice
Settings: endpoint: median survival time, higher = longer survival
Procedure, shortened: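 Mice carrying the transplantable tumour receive compound or vehicle. Survival is followed in each arm, and the treated measure is divided by the vehicle measure.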

[1] = dose: 12.5 mg/kg/injection, schedule: Q01DX009 (ip), vehicle: Klucel (hydroxypropylcellulose) (HPC)
[2] = dose: 25.0 mg/kg/injection, schedule: Q01DX009 (ip), vehicle: Klucel (hydroxypropylcellulose) (HPC)
[3] = dose: 50.0 mg/kg/injection, schedule: Q01DX009 (ip), vehicle: Klucel (hydroxypropylcellulose) (HPC)
[4] = dose: 50.0 mg/kg/injection, schedule: Q01DX009 (ip), vehicle: saline with Tween-80
[5] = dose: 50.0 mg/kg/injection, schedule: Q04DX003 (ip), vehicle: saline with Tween-80
[6] = dose: 100.0 mg/kg/injection, schedule: Q01DX009 (ip), vehicle: saline with Tween-80
[7] = dose: 100.0 mg/kg/injection, schedule: Q04DX003 (ip), vehicle: saline with Tween-80
[8] = dose: 200.0 mg/kg/injection, schedule: Q01DX009 (ip), vehicle: saline with Tween-80
[9] = dose: 200.0 mg/kg/injection, schedule: Q04DX003 (ip), vehicle: saline with Tween-80
[10] = dose: 100.0 mg/kg/injection, schedule: Q01DX009 (ip), vehicle: saline
[11] = dose: 100.0 mg/kg/injection, schedule: Q04DX003 (ip), vehicle: water
[12] = dose: 12.5 mg/kg/injection, schedule: Q04DX003 (ip), vehicle: saline
[13] = dose: 25.0 mg/kg/injection, schedule: Q04DX003 (ip), vehicle: saline
[14] = dose: 50.0 mg/kg/injection, schedule: Q04DX003 (ip), vehicle: saline
[15] = dose: 25.0 mg/kg/injection, schedule: Q01DX009 (ip), vehicle: saline
[16] = dose: 50.0 mg/kg/injection, schedule: Q01DX009 (ip), vehicle: saline

Measured: T/C

O=C(O)c1c(-c2ccccc2)[nH]c2cc(Cl)ccc2c1=O
inactive: dose: 6.25 mg/kg/injection, schedule: Q01DX009 (ip), vehicle: Klucel (hydroxypropylcellulose) (HPC) 95 % of control | [1] 90 % of control and 109 % of control | [2] 100 % of control | [3] 95 % of control | [4] 114 % of control | [5] 122 % of control | dose: 90.0 mg/kg/injection, schedule: Q04DX003 (ip), vehicle: saline with Tween-80 109 % of control | [6] 118 % of control | [7] 113 % of control | dose: 133.0 mg/kg/injection, schedule: Q04DX003 (ip), vehicle: saline with Tween-80 112 % of control and 113 % of control | [8] 100 % of control | [9] 108 % of control and 109 % of control | dose: 300.0 mg/kg/injection, schedule: Q04DX003 (ip), vehicle: saline with Tween-80 104 % of control

C[Si](C)(C)Nc1ncnc2c1ncn2[Si](C)(C)C
inactive: [6] 91 % of control

O=c1ccc2cc(OC3OC(CO)C(O)C(O)C3O)c(O)cc2o1 (stereo not drawn)
inactive: [10] 95 % of control | dose: 100.0 mg/kg/injection, schedule: Q04DX003 (ip), vehicle: alcohol 105 % of control | dose: 200.0 mg/kg/injection, schedule: Q01DX009 (ip), vehicle: saline 104 % of control | dose: 200.0 mg/kg/injection, schedule: Q04DX003 (ip), vehicle: alcohol 100 % of control | dose: 400.0 mg/kg/injection, schedule: Q01DX009 (ip), vehicle: saline 109 % of control | dose: 400.0 mg/kg/injection, schedule: Q04DX003 (ip), vehicle: alcohol 110 % of control

CCCCCCCCCCCCCCCCC(C(=O)O)C(O)(CC(=O)O)C(=O)O (stereo not drawn)
inactive: dose: 25.0 mg/kg/injection, schedule: Q01DX010 (ip), vehicle: saline 104 % of control | dose: 50.0 mg/kg/injection, schedule: Q01DX010 (ip), vehicle: saline 100 % of control

CCCCSC#N
inactive: dose: 6.25 mg/kg/injection, schedule: Q01DX001 (ip), vehicle: saline 94 % of control | dose: 12.5 mg/kg/injection, schedule: Q01DX001 (ip), vehicle: saline 100 % of control

CC(O)Cc1c[nH]c(=O)[nH]c1=O (stereo not drawn)
inactive: dose: 100.0 mg/kg/injection, schedule: Q01DX009 (ip), vehicle: water 92 % of control | [11] 90 % of control | dose: 200.0 mg/kg/injection, schedule: Q01DX009 (ip), vehicle: water 96 % of control | dose: 200.0 mg/kg/injection, schedule: Q04DX003 (ip), vehicle: water 105 % of control | dose: 400.0 mg/kg/injection, schedule: Q04DX003 (ip), vehicle: water 96 % of control

CCCCOP(=O)(CCCC)OCCCC
inactive: dose: 12.5 mg/kg/injection, schedule: Q01DX009 (ip), vehicle: saline with Tween-80 109 % of control | [12] 100 % of control | dose: 25.0 mg/kg/injection, schedule: Q01DX009 (ip), vehicle: saline with Tween-80 104 % of control | [13] 104 % of control | [4] 109 % of control | [14] 104 % of control

NC(=S)N=Nc1c(O)[nH]c2ccccc12
inactive: [3] 119 % of control | dose: 100.0 mg/kg/injection, schedule: Q01DX009 (ip), vehicle: Klucel (hydroxypropylcellulose) (HPC) 118 % of control | dose: 200.0 mg/kg/injection, schedule: Q01DX009 (ip), vehicle: Klucel (hydroxypropylcellulose) (HPC) 115 % of control

CC(=O)CC(=O)c1ccccc1.CC(=O)CC(=O)c1ccccc1.CC(=O)CC(=O)c1ccccc1.[Co]
inactive: dose: 10.0 mg/kg/injection, schedule: Q01DX001 (ip), vehicle: Klucel (hydroxypropylcellulose) (HPC) 90 % of control | dose: 10.0 mg/kg/injection, schedule: Q04DX003 (ip), vehicle: Klucel (hydroxypropylcellulose) (HPC) 104 % of control | dose: 20.0 mg/kg/injection, schedule: Q01DX001 (ip), vehicle: Klucel (hydroxypropylcellulose) (HPC) 104 % of control | dose: 20.0 mg/kg/injection, schedule: Q04DX003 (ip), vehicle: Klucel (hydroxypropylcellulose) (HPC) 104 % of control | dose: 40.0 mg/kg/injection, schedule: Q01DX001 (ip), vehicle: Klucel (hydroxypropylcellulose) (HPC) 104 % of control | dose: 40.0 mg/kg/injection, schedule: Q04DX003 (ip), vehicle: Klucel (hydroxypropylcellulose) (HPC) 100 % of control

NC(CO)Cc1ccccc1 (stereo not drawn)
inactive: [1] 106 % of control | [2] 91 % of control

O=[N+]([O-])c1cccc(/C=C/c2ccc(S(=O)(=O)F)cc2)c1
inactive: [5] 95 % of control | [7] 109 % of control | [9] 95 % of control

CCOC(=O)C12CC=CC(CCC1)/C2=N\Nc1ccccc1 (stereo not drawn)
inactive: [6] 90 % of control | [8] 90 % of control | dose: 400.0 mg/kg/injection, schedule: Q01DX009 (ip), vehicle: saline with Tween-80 117 % of control

COc1cc2ccncc2cc1OCc1ccccc1
inactive: dose: 6.25 mg/kg/injection, schedule: Q04DX003 (ip), vehicle: saline 100 % of control | [12] 100 % of control and 118 % of control | [15] 86 % of control | [13] 93 % of control and 103 % of control | [16] 92 % of control | [14] 98 % of control and 118 % of control | [10] 104 % of control | dose: 100.0 mg/kg/injection, schedule: Q04DX003 (ip), vehicle: saline 97 % of control and 100 % of control | dose: 200.0 mg/kg/injection, schedule: Q04DX003 (ip), vehicle: saline 93 % of control and 120 % of control | dose: 400.0 mg/kg/injection, schedule: Q04DX003 (ip), vehicle: saline 106 % of control

Cc1ccsc1/C=N/NC(N)=S
inactive: [5] 117 % of control | [7] 117 % of control | [9] 115 % of control | dose: 400.0 mg/kg/injection, schedule: Q04DX003 (ip), vehicle: saline with Tween-80 92 % of control

COc1ccc2c(C#N)cc3c4ccccc4ncc3c2c1
inactive: dose: 12.5 mg/kg/injection, schedule: Q01DX009 (ip), vehicle: distilled water + Tween-80 107 % of control | dose: 25.0 mg/kg/injection, schedule: Q01DX009 (ip), vehicle: distilled water + Tween-80 113 % of control | dose: 50.0 mg/kg/injection, schedule: Q01DX009 (ip), vehicle: distilled water + Tween-80 88 % of control | dose: 100.0 mg/kg/injection, schedule: Q01DX009 (ip), vehicle: distilled water + Tween-80 88 % of control

NC1=NNC(N)=NN1
inactive: dose: 12.5 mg/kg/injection, schedule: Q01DX009 (ip), vehicle: saline 94 % of control | [15] 100 % of control | [16] 96 % of control

COc1cccc(CN2CCCNCC2)c1
inactive: dose: 6.25 mg/kg/injection, schedule: Q04DX003 (ip), vehicle: water 92 % of control | dose: 12.5 mg/kg/injection, schedule: Q04DX003 (ip), vehicle: water 93 % of control | dose: 25.0 mg/kg/injection, schedule: Q04DX003 (ip), vehicle: water 93 % of control | dose: 50.0 mg/kg/injection, schedule: Q04DX003 (ip), vehicle: water 112 % of control | [11] 89 % of control

Reference: PubChem BioAssay AID328 (DTP/NCI, 2004)
